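Method: 48-hour compound exposure of cells in 96-well plates, five concentrations, linear interpolation of endpoints. GI50: concentration for 50% inhibition of growth.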 Activity calls are given as the source filed them. Rule as the data show it: active = GI50 up to about 1.1 µM and inactive = higher.
How the values were obtained:
Experiment in all cases: growth of human tumour cells (NCI), 48 h
786-0 = system: 786-0
A498 = system: A498
A549 = system: A549
ACHN = system: ACHN
CAKI-1 = system: CAKI-1
COLO 205 = system: COLO 205
DLD-1 = system: DLD-1
DMS-114 = system: DMS-114
DMS-273 = system: DMS-273
EKVX = system: EKVX
HCC 2998 = system: HCC 2998
HCT-116 = system: HCT-116
HL-60 = system: HL-60
HOP-18 = system: HOP-18
HOP-62 = system: HOP-62
HOP-92 = system: HOP-92
HT-29 = system: HT-29
IGROV-1 = system: IGROV-1
K562 = system: K562
KM-20L2 = system: KM-20L2
KM12 = system: KM12
LOX IMVI = system: LOX IMVI
LXFL 529 = system: LXFL 529
M14 = system: M14
M19-MEL = system: M19-MEL
MOLT-4 = system: MOLT-4
Malme-3M = system: Malme-3M
NCI-H226 = system: NCI-H226
NCI-H23 = system: NCI-H23
NCI-H460 = system: NCI-H460
NCI-H522 = system: NCI-H522
OVCAR-3 = system: OVCAR-3
OVCAR-4 = system: OVCAR-4
OVCAR-5 = system: OVCAR-5
OVCAR-8 = system: OVCAR-8
RPMI-8226 = system: RPMI-8226
RXF 393 = system: RXF 393
RXF 631 = system: RXF 631
SF-268 = system: SF-268
SF-295 = system: SF-295
SF-539 = system: SF-539
SK-MEL-28 = system: SK-MEL-28
SK-MEL-5 = system: SK-MEL-5
SK-OV-3 = system: SK-OV-3
SN12C = system: SN12C
SNB-19 = system: SNB-19
SNB-75 = system: SNB-75
SNB-78 = system: SNB-78
SW-620 = system: SW-620
TK-10 = system: TK-10
U-251 = system: U-251
UACC-257 = system: UACC-257
UACC-62 = system: UACC-62
UO-31 = system: UO-31
CCRF-CEM = system: CCRF-CEM
HCT-15 = system: HCT-15
SK-MEL-2 = system: SK-MEL-2
SR = system: SR
XF498 = system: XF498

With `Cc1cc(C)nc(NS(=O)(=O)c2ccc(NC(=O)c3ccc(Cl)c4c(Nc5ccc(S(=O)(=O)Nc6cc(C)on6)cc5)c5ccccc5nc34)cc2)n1` the GI50 (786-0) was 17 µM (inactive), the GI50 (A498) was 15.3 µM (inactive) and the GI50 (A549) was 19.7 µM (inactive). The GI50 (ACHN) was 18.9 µM (inactive), the GI50 (CAKI-1) was 15.7 µM (inactive) and the GI50 (COLO 205) was 18.1 µM (inactive). The GI50 (DLD-1) was 16 µM (inactive), the GI50 (DMS-114) was 17.9 µM (inactive) and the GI50 (DMS-273) was 17.4 µM (inactive). The GI50 (EKVX) was 19 µM (inactive), the GI50 (HCC 2998) was 18.7 µM (inactive) and the GI50 (HCT-116) was 20.4 µM (inactive). For the same compound, the GI50 (HL-60) was 8.95 µM (inactive), the GI50 (HOP-18) was 15.7 µM (inactive) and the GI50 (HOP-62) was 16.3 µM (inactive). For the same compound, the GI50 (HOP-92) was 16.3 µM (inactive), the GI50 (HT-29) was 19.5 µM (inactive) and the GI50 (IGROV-1) was 20.1 µM (inactive). For the same compound, the GI50 (K562) was 20.9 µM (inactive), the GI50 (KM-20L2) was 18.5 µM (inactive) and the GI50 (KM12) was 18.4 µM (inactive). The GI50 (LOX IMVI) was 15.8 µM (inactive), the GI50 (LXFL 529) was 16.8 µM (inactive) and the GI50 (M14) was 18.8 µM (inactive). The GI50 (M19-MEL) was 21 µM (inactive), the GI50 (MOLT-4) was 22.9 µM (inactive) and the GI50 (Malme-3M) was 20.9 µM (inactive). For the same compound, the GI50 (NCI-H226) was 17.5 µM (inactive), the GI50 (NCI-H23) was 14.5 µM (inactive) and the GI50 (NCI-H460) was 18 µM (inactive). For the same compound, the GI50 (NCI-H522) was 16.1 µM (inactive), the GI50 (OVCAR-3) was 16.6 µM (inactive) and the GI50 (OVCAR-4) was 16.7 µM (inactive). For the same compound, the GI50 (OVCAR-5) was 21 µM (inactive), the GI50 (OVCAR-8) was 15.5 µM (inactive) and the GI50 (RPMI-8226) was 17.9 µM (inactive). For the same compound, the GI50 (RXF 393) was 14.3 µM (inactive), the GI50 (RXF 631) was 17.7 µM (inactive) and the GI50 (SF-268) was 15 µM (inactive). The GI50 (SF-295) was 18.2 µM (inactive), the GI50 (SF-539) was 18.7 µM (inactive) and the GI50 (SK-MEL-28) was 18.4 µM (inactive). For the same compound, the GI50 (SK-MEL-5) was 16.4 µM (inactive), the GI50 (SK-OV-3) was 19.4 µM (inactive) and the GI50 (SN12C) was 17.9 µM (inactive). For the same compound, the GI50 (SNB-19) was 17 µM (inactive), the GI50 (SNB-75) was > 10 µM (inactive) and the GI50 (SNB-78) was 13.9 µM (inactive). The GI50 (SW-620) was 17.3 µM (inactive), the GI50 (TK-10) was 18.3 µM (inactive) and the GI50 (U-251) was 15.3 µM (inactive). For the same compound, the GI50 (UACC-257) was 18.2 µM (inactive), the GI50 (UACC-62) was 17.1 µM (inactive) and the GI50 (UO-31) was 17.6 µM (inactive).
`O=C(O)CSc1nnc(-c2ccccc2O)[nH]1` was tested, and the GI50 (786-0) was > 100 µM (inactive), the GI50 (A498) was > 100 µM (inactive) and the GI50 (A549) was > 100 µM (inactive). The GI50 (ACHN) was > 100 µM (inactive), the GI50 (CAKI-1) was > 100 µM (inactive) and the GI50 (CCRF-CEM) was > 100 µM (inactive). The GI50 (DLD-1) was > 100 µM (inactive), the GI50 (DMS-114) was > 100 µM (inactive) and the GI50 (DMS-273) was > 100 µM (inactive). The GI50 (EKVX) was > 100 µM (inactive), the GI50 (HCC 2998) was > 100 µM (inactive) and the GI50 (HCT-116) was > 100 µM (inactive). The GI50 (HCT-15) was greater than 100 µM, the GI50 (HL-60) was > 100 µM (inactive) and the GI50 (HOP-92) was > 100 µM (inactive). The GI50 (HT-29) was > 100 µM (inactive), the GI50 (IGROV-1) was > 100 µM (inactive) and the GI50 (K562) was > 100 µM (inactive). The GI50 (KM-20L2) was > 100 µM (inactive), the GI50 (LOX IMVI) was > 100 µM (inactive) and the GI50 (LXFL 529) was > 100 µM (inactive). For the same compound, the GI50 (M14) was > 100 µM (inactive), the GI50 (M19-MEL) was > 100 µM (inactive) and the GI50 (MOLT-4) was > 100 µM (inactive). The GI50 (Malme-3M) was > 100 µM (inactive), the GI50 (NCI-H226) was > 100 µM (inactive) and the GI50 (NCI-H23) was > 100 µM (inactive). The GI50 (NCI-H460) was > 100 µM (inactive), the GI50 (OVCAR-3) was > 100 µM (inactive) and the GI50 (OVCAR-4) was > 100 µM (inactive). For the same compound, the GI50 (OVCAR-5) was > 100 µM (inactive), the GI50 (OVCAR-8) was > 100 µM (inactive) and the GI50 (RPMI-8226) was > 100 µM (inactive). For the same compound, the GI50 (RXF 393) was > 100 µM (inactive), the GI50 (RXF 631) was > 100 µM (inactive) and the GI50 (SF-268) was > 100 µM (inactive). The GI50 (SF-295) was > 100 µM (inactive), the GI50 (SF-539) was > 100 µM (inactive) and the GI50 (SK-MEL-28) was > 100 µM (inactive). The GI50 (SK-MEL-2) was > 100 µM (inactive), the GI50 (SK-MEL-5) was > 100 µM (inactive) and the GI50 (SN12C) was > 100 µM (inactive). For the same compound, the GI50 (SNB-19) was > 100 µM (inactive), the GI50 (SNB-75) was > 100 µM (inactive) and the GI50 (SNB-78) was > 100 µM (inactive). The GI50 (SR) was > 100 µM (inactive), the GI50 (SW-620) was > 100 µM (inactive) and the GI50 (TK-10) was > 100 µM (inactive). For the same compound, the GI50 (U-251) was > 100 µM (inactive), the GI50 (UACC-257) was > 100 µM (inactive) and the GI50 (UACC-62) was > 100 µM (inactive). For the same compound, the GI50 (UO-31) was > 100 µM (inactive) and the GI50 (XF498) was > 100 µM (inactive).
With `CN(C)/N=N/c1cccc(C(N)=O)c1` the GI50 (786-0) was > 100 µM (inactive), the GI50 (A498) was > 100 µM (inactive) and the GI50 (A549) was > 100 µM (inactive). The GI50 (ACHN) was > 100 µM (inactive), the GI50 (CAKI-1) was > 100 µM (inactive) and the GI50 (CCRF-CEM) was > 100 µM (inactive). For the same compound, the GI50 (COLO 205) was > 100 µM (inactive), the GI50 (DLD-1) was > 100 µM (inactive) and the GI50 (DMS-114) was > 100 µM (inactive). The GI50 (DMS-273) was > 100 µM (inactive), the GI50 (EKVX) was > 100 µM (inactive) and the GI50 (HCC 2998) was > 100 µM (inactive). For the same compound, the GI50 (HCT-116) was > 100 µM (inactive), the GI50 (HCT-15) was greater than 100 µM and the GI50 (HL-60) was > 100 µM (inactive). For the same compound, the GI50 (HOP-18) was > 100 µM (inactive), the GI50 (HOP-92) was > 100 µM (inactive) and the GI50 (HT-29) was > 100 µM (inactive). For the same compound, the GI50 (IGROV-1) was > 100 µM (inactive), the GI50 (K562) was > 100 µM (inactive) and the GI50 (KM-20L2) was > 100 µM (inactive). For the same compound, the GI50 (KM12) was > 100 µM (inactive), the GI50 (LXFL 529) was > 100 µM (inactive) and the GI50 (M14) was > 100 µM (inactive). The GI50 (M19-MEL) was > 100 µM (inactive), the GI50 (MOLT-4) was > 100 µM (inactive) and the GI50 (Malme-3M) was > 100 µM (inactive). For the same compound, the GI50 (NCI-H226) was > 100 µM (inactive), the GI50 (NCI-H23) was > 100 µM (inactive) and the GI50 (NCI-H460) was > 100 µM (inactive). For the same compound, the GI50 (OVCAR-3) was > 100 µM (inactive), the GI50 (OVCAR-4) was > 100 µM (inactive) and the GI50 (OVCAR-8) was > 100 µM (inactive). The GI50 (RPMI-8226) was > 100 µM (inactive), the GI50 (RXF 393) was > 100 µM (inactive) and the GI50 (SF-268) was > 100 µM (inactive). The GI50 (SF-295) was > 100 µM (inactive), the GI50 (SF-539) was > 100 µM (inactive) and the GI50 (SK-MEL-28) was > 100 µM (inactive). For the same compound, the GI50 (SK-MEL-2) was > 100 µM (inactive), the GI50 (SK-MEL-5) was > 100 µM (inactive) and the GI50 (SK-OV-3) was > 100 µM (inactive). For the same compound, the GI50 (SN12C) was > 100 µM (inactive), the GI50 (SNB-19) was > 100 µM (inactive) and the GI50 (SNB-75) was 69.3 µM (inactive). The GI50 (SNB-78) was > 100 µM (inactive), the GI50 (SR) was > 100 µM (inactive) and the GI50 (SW-620) was > 100 µM (inactive). For the same compound, the GI50 (TK-10) was > 100 µM (inactive), the GI50 (U-251) was > 100 µM (inactive) and the GI50 (UO-31) was > 100 µM (inactive). For the same compound, the GI50 (XF498) was > 100 µM (inactive).

From ChEMBL document CHEMBL1201862, “PubChem BioAssay data set” (2004)
